Data reported in US11618894B2, “Bacteria engineered to reduce hyperphenylalaninemia” (Synlogic Operating Company, Inc., priority 2015, dated 2023).

Legend:
[1] = Kinetics of phenylalanine in the enterocirculation model; type: in vivo, PKU (enu2) mice; settings: subcutaneous 0.1 mg/g phenylalanine
Experimental: To characterize the phenylalanine enterocirculation model, first the kinetics of serum levels of phenylalanine post phenylalanine challenger were assessed.
On day −6, PKU (enu2) mice were placed on phenylalanine-free chow and water (+)Phe (0.5 g/L)
On day 1, animals were bled to get T=0 (pre Phe challenge), and animals were randomized into two groups based on phenylalanine levels measured. The first treatment group (n=15) included mice for use for the 2, 6 and 24 hour post phenylalanine challenge time points; Group 2 (n=15) included mice for the 4 and 8 hour post phenylalanine challenge time points.
Mice were pre-weighed to obtain the average weight for each group. Phenylalanine was dosed at a concentration equal to average group weight. Animals were dosed subcutaneously with 0.1 mg/g phenylalanine. In Group 1, animals were bled at 2, 6 and 24 h post Phe challenge. In Group 2, animals were bled at 4 and 8 h post Phe challenge. Whisker plots in FIG. 38A and FIG. 38B show distribution of mouse blood phenylalanine levels (both overall phenylalanine levels (FIG. 38A) and change in phenylalanine levels from T0 (FIG. 38B). Phenylalanine levels were stably elevated over at least a 6 hour period. […]
On day −6, PKU mice were placed on phenylalanine-free chow and water (+)Phe (0.5 g/L). […] Animals were randomized into three treatment groups based on phenylalanine levels measured. […]

hippurate = assay: Kinetics of hippurate recovery in urine, gavage of live cells vs pure TCA; type: in vivo, mice
Description: FIG. 56 depicts a graph showing hippurate recovery in urine, and comparing kinetics of the generation of hippuric acid from phenylalanine through the gavage of live cells to the generation of hippuric acid derived from pure TCA gavage.

[2] = Turnover of orally gavaged TCA into hippuric acid, recovery in urine; type: in vivo, Pah ENU2/2 mice
Experimental: To determine whether hippuric acid detection in the urine is suitable as a measure for in vivo cell activity and a potential biomarker, the extent of turnover of TCA into hippuric acid was assessed by oral gavage of various concentrations of TCA in PKU mice and subsequent measurement of TCA and hippuric acid by LC/MS.
Various TCA concentrations were administered by oral gavage.
Urine and feces were transferred to appropriate tubes and store samples on ice until processed for MS analysis.
Next, the kinetics of conversion of TCA to hippuric acid was assessed in a time course post pure TCA oral gavage. […] TCA concentrations were administered by oral gavage. […] Urine was transferred to appropriate tubes and store samples on ice until processed for MS analysis.

[3] = Oral gavage of TCA in PKU mice, recovery of TCA and hippuric acid in urine, feces and blood
Experimental: Urine, feces, and blood were collected at 4 hours post gavage and analyzed for TCA and its major breakdown product, hippuric acid.
Animals were transferred to metabolic cages (3 mice per cage, 2 cages per group) and urine samples were collected at 1, 2, 3, 4, 5, 6 hours post TCA dose.

[4] = oral gavage 0.0125, 0.025, 0.05 or 0.1 mg/g TCA, 4 hours after gavage

SMILES	period over which blood phenylalanine levels were stably elevated [1] [h]	time of rapid decrease in hippurate recovery in urine post collection start (hippurate) [min]	recovery of TCA in the form of hippurate in the urine [2, 4]	TCA and hippurate detected in blood and feces ([2]; oral gavage of TCA, 4 h, data not shown)	recovery of TCA in the form of hippurate in urine [3, 4]	TCA and hippurate in blood and feces ([3]; oral gavage 0.0125-0.1 mg/g TCA, 4 hours post gavage)
N[C@@H](Cc1ccccc1)C(=O)O [Phenylalanine, phenylalanine]	≥ 6	–	–	–	–	–
O=C(O)/C=C/c1ccccc1 [TCA, Trans-cinnamic acid]	–	≤ 15	nearly full recovery	Insignificant amounts	nearly full recovery	Insignificant amounts
